Patent publication US5824691A, “Guanidine derivatives as inhibitors of Na^+ /H^+ exchange in cells” (Fujisawa Pharmaceutical Co., Ltd., priority 1993, dated 1998)

Target: T1, Na^+ /H^+ exchanger (Rattus norvegicus, UniProt P26431)
T1 construct: endogenous in cells; host or cells: thymocytes freshly isolated from the thymus of a male SD (Sprague-Dawley) rat
Assay: Inhibitory activity on Na^+ /H^+ exchange in cells (thymocyte swelling in sodium propionate medium)
Format: cell-based
Details: apparent Ki, Lineweaver-Burk plot; rate of swelling of thymocytes (male SD strain); sodium-propionate medium pH 6.8; 0.1% DMSO; 3-5 concentrations
Method: [2] Inhibitory activity on Na^+ /H^+ exchange in cells
Procedure was carried out according to a similar manner to the method described in Enzymology 173, 777 (1989).
One male SD strain weighing 250-300 g was sacrificed with the blow on the head. Then, the thymus was removed into ice-cold NaCl medium (140 mM sodium chloride, 1 mM potassium chloride, 1 mM calcium chloride, 1 mM magnesium chloride, 10 mM glucose and 20 mM N-2-hydroxyethylpiperazine-N'-2-ethanesulfonic acid (HEPES) - - - pH 7.3), cut in small fragments, and transferred to glass homogenizer. The cells were dissociated by gentle strokes, and the resulting suspension was filtrated through six layers of surgical gauze and the filtrate was centrifuged at 4° C. at 1000 g for 5 minutes. The pellet was resuspended in RPMI 1640 medium (pH 7.3) at room temperature to adjust final cell concentration (1×10^7 cells/ml).
This method detects the swelling that accompanies activation of Na^+ /H^+ exchanger in cells incubated with sodium propionate. Propionic acid rapidly penetrates through the membrane. […]
Cell sizing and counting were performed electrically with the Coulter Counter-Channelyzer (AT-II). […] Rate of Swelling (volume/min.) was measured by using 3-5 concentrations of test compound. Then, apparent Ki value of test compound was calculated by using Line weaver-Burk plot.

T1 sequence (P26431 whole entry): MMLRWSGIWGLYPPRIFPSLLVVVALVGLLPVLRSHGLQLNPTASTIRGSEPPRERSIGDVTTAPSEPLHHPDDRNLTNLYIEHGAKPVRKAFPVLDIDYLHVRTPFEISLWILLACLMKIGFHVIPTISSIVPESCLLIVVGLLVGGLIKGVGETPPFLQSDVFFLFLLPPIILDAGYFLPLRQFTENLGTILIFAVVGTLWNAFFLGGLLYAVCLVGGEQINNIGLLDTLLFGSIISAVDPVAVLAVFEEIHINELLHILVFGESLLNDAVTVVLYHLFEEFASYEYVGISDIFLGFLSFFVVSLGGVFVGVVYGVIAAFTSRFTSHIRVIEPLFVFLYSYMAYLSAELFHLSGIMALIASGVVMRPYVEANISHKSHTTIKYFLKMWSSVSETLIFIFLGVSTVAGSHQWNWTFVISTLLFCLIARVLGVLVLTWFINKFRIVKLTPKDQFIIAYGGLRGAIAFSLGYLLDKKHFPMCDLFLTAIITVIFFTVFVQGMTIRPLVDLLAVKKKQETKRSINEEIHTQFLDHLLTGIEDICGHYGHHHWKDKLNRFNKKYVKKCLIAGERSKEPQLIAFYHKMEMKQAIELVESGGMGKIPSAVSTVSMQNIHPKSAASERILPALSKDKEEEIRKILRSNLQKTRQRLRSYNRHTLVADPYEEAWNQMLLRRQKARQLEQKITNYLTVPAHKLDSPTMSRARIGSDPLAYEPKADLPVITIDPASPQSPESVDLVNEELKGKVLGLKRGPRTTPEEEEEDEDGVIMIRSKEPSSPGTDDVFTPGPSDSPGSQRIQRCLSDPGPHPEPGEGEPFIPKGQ

Ki: < 100 nM
SMILES: CS(=O)(=O)c1cc(C(=O)N=C(N)N)cc(-n2cccc2)c1 [Test compound (a), 2-[3-Methylsulfonyl-5-(pyrrol-1-yl)benzoyl]guanidine]
